Source: patent publication US20040082635A1, “Fused cyclic compounds and medicinal use thereof” (priority 2001, published 2004)
Where a name gives a salt, the structure may show the parent alone.

Target: T1, HCV polymerase (Hepatitis C virus genotype 1b, UniProt P26663)
T1 construct: a region encoding NS5B (591 amino acids; J Virol 1991 Mar, 65(3), 1105-13) was amplified by PCR; 6 His (N); made in house; host or cells: Escherichia coli
Experiment: biochemical
Conditions: read-out: HCV polymerase inhibitory activity IC50

T1 sequence (P26663 2420-3010): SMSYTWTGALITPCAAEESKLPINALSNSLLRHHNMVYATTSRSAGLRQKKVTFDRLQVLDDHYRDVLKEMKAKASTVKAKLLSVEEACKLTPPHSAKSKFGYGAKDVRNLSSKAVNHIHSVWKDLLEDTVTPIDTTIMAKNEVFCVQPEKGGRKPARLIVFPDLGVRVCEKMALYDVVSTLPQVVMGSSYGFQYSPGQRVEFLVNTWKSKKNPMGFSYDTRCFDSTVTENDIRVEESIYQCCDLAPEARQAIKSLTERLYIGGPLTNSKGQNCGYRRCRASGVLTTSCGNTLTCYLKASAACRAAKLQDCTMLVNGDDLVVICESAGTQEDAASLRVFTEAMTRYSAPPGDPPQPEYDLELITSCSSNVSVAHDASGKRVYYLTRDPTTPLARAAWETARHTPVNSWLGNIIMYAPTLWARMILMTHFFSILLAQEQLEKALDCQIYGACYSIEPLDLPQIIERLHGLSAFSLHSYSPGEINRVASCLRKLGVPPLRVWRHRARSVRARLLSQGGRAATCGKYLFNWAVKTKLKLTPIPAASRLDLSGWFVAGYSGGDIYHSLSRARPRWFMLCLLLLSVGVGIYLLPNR

| Structure (SMILES) | IC50 [nM] |
| --- | --- |
| O=C(O)c1ccc2c(c1)nc(-c1ccc(OCc3cc(Cl)ccc3-c3ccccc3C(F)(F)F)cc1)n2C1CCCCC1 [Example 151, 2-{4-[3-chloro-6-(2-trifluoromethylphenyl)benzyloxy]phenyl}-1-cyclohexylbenzimidazole-5-carboxylic acid] | 200 |
| O=C(O)c1ccc2c(c1)nc(-c1ccc(Oc3ccccc3-c3ccccc3)cc1)n2C1CCCCC1 [Example 153, 2-[4-(2-biphenylyloxy)phenyl]-1-cyclohexylbenzimidazole-5-carboxylic acid] | 190 |
| O=C(O)c1ccc2c(c1)nc(-c1ccc(Oc3cccc(-c4ccccc4)c3)cc1)n2C1CCCCC1 [Example 154, 2-[4-(3-biphenylyloxy)phenyl]-1-cyclohexylbenzimidazole-5-carboxylic acid] | 76 |
| CC(C)(C)OC(=O)N1CCC(COc2ccccc2Oc2ccc(-c3nc4cc(C(=O)O)ccc4n3C3CCCCC3)cc2)CC1 [Example 155, 2-{4-[2-{(1-tert-butoxycarbonyl-4-piperidyl)methoxy}phenoxy]-phenyl}-1-cyclohexylbenzimidazole-5-carboxylic acid] | 530 |
| CC(C)(C)OC(=O)N1CCC(COc2cccc(Oc3ccc(-c4nc5cc(C(=O)O)ccc5n4C4CCCCC4)cc3)c2)CC1 [Example 156, 2-{4-[3-{(1-tert-butoxycarbonyl-4-piperidyl)methoxy}phenoxy]-phenyl}-1-cyclohexylbenzimidazole-5-carboxylic acid] | 230 |
| O=C(O)c1ccc2c(c1)nc(-c1ccc(Oc3ccccc3OCC3CCNCC3)cc1)n2C1CCCCC1 [Example 160, 1-cyclohexyl-2-{4-[2-(4-piperidylmethoxy)phenoxy]phenyl}-benzimidazole-5-carboxylic acid hydrochloride] | 240 |
| O=C(O)c1ccc2c(c1)nc(-c1ccc(Oc3cccc(OCC4CCNCC4)c3)cc1)n2C1CCCCC1 [Example 161, 1-cyclohexyl-2-{4-[3-(4-piperidylmethoxy)phenoxy]phenyl}-benzimidazole-5-carboxylic acid hydrochloride] | 62 |
| CC(=O)N[C@@H](COc1ccc(-c2nc3cc(C(=O)O)ccc3n2C2CCCCC2)cc1)c1ccccc1 [Example 162, 2-{4-[(2R)-2-acetylamino-2-phenylethoxy]phenyl}-1-cyclohexylbenzimidazole-5-carboxylic acid] | 430 |
| CC(C)=CCCOc1cccc(Oc2ccc(-c3nc4cc(C(=O)O)ccc4n3C3CCCCC3)cc2)c1 [Example 163, 1-cyclohexyl-2-{4-[3-(4-methyl-3-pentenyloxy)phenoxy]phenyl}-benzimidazole-5-carboxylic acid] | 150 |
| O=C(O)c1ccc2c(c1)nc(-c1ccc(OC[C@@H]3CCCN3Cc3ccccc3)cc1)n2C1CCCCC1 [Example 165, 2-{4-[{(2S)-1-benzyl-2-pyrrolidinyl}methoxy]phenyl}-1-cyclohexyl-benzimidazole-5-carboxylic acid hydrochloride] | 580 |
| CSc1ccc(-c2ccc(Cl)cc2COc2ccc(-c3nc4cc(C(=O)O)ccc4n3C3CCCCC3)cc2)cc1 [Example 166, 2-{4-[3-chloro-6-(4-methylthiophenyl)benzyloxy]phenyl}-1-cyclohexylbenzimidazole-5-carboxylic acid] | 55 |
| CS(=O)(=O)c1ccc(-c2ccc(Cl)cc2COc2ccc(-c3nc4cc(C(=O)O)ccc4n3C3CCCCC3)cc2)cc1 [Example 167, 2-{4-[3-chloro-6-(4-methanesulfonylphenyl)benzyloxy]phenyl}-1-cyclohexylbenzimidazole-5-carboxylic acid] | 33 |
| O=C(O)c1ccc2c(c1)nc(-c1ccc(OCc3cc(Cl)ccc3-c3cccs3)cc1)n2C1CCCCC1 [Example 168, 2-{4-[3-chloro-6-(2-thienyl)benzyloxy]phenyl}-1-cyclohexylbenzimidazole-5-carboxylic acid] | 78 |
| O=C(O)c1ccc2c(c1)nc(-c1ccc(OCc3cc(Cl)ccc3-c3cccc(Cl)c3)cc1)n2C1CCCCC1 [Example 169, 2-{4-[3-chloro-6-(3-chlorophenyl)benzyloxy]phenyl}-1-cyclohexylbenzimidazole-5-carboxylic acid] | 150 |
| O=C(O)c1ccc2c(c1)nc(-c1ccc(OCc3cc(Cl)ccc3-c3cccnc3)cc1)n2C1CCCCC1 [Example 170, 2-{4-[3-chloro-6-(3-pyridyl)benzyloxy]phenyl}-1-cyclohexylbenzimidazole-5-carboxylic acid] | 48 |
| O=C(O)c1ccc2c(c1)nc(-c1ccc(OCc3cc(Cl)ccc3-c3ccc(F)cc3)cc1)n2C1CCCCC1 [Example 171, 2-{4-[3-chloro-6-(4-fluorophenyl)benzyloxy]phenyl}-1-cyclohexylbenzimidazole-5-carboxylic acid] | 50 |
| O=C(O)c1ccc2c(c1)nc(-c1ccc(Oc3ccc(OCc4ccccc4)cc3)c(F)c1)n2C1CCCCC1 [Example 172, 2-[4-(4-benzyloxyphenoxy)-3-fluorophenyl]-1-cyclohexylbenzimidazole-5-carboxylic acid] | 100 |
| O=C(O)c1ccc2c(c1)nc(-c1ccc(OCc3cc(Cl)ccc3Br)cc1)n2C1CCCCC1 [Example 173, 2-[4-(2-bromo-5-chlorobenzyloxy)phenyl]-1-cyclohexylbenzimidazole-5-carboxylic acid] | 140 |

| Structure (SMILES) | IC50 [nM] |
| --- | --- |
| O=C(O)c1ccc2c(c1)nc(-c1ccc(OCc3cc(Cl)ccc3-c3ccc(Cl)cc3)cc1F)n2C1CCCCC1 [Example 174, 2-{4-[3-chloro-6-(4-chlorophenyl)benzyloxy]-2-fluorophenyl}-1-cyclohexylbenzimidazole-5-carboxylic acid] | 30 |
| CC(=O)N1CCC(COc2ccccc2Oc2ccc(-c3nc4cc(C(=O)O)ccc4n3C3CCCCC3)cc2)CC1 [Example 175, 2-{4-[2-{(1-acetyl-4-piperidyl)methoxy}phenoxy]phenyl}-1-cyclohexylbenzimidazole-5-carboxylic acid] | 290 |
| CC(=O)N1CCC(COc2cccc(Oc3ccc(-c4nc5cc(C(=O)O)ccc5n4C4CCCCC4)cc3)c2)CC1 [Example 176, 2-{4-[3-{(1-acetyl-4-piperidyl)methoxy}phenoxy]phenyl}-1-cyclohexylbenzimidazole-5-carboxylic acid] | 53 |
| C#CCOc1cccc(Oc2ccc(-c3nc4cc(C(=O)O)ccc4n3C3CCCCC3)cc2)c1 [Example 177, 1-cyclohexyl-2-{4-[3-(2-propynyloxy)phenoxy]phenyl}benzimidazole-5-carboxylic acid] | 77 |
| O=C(O)c1ccc2c(c1)nc(-c1ccc(Oc3cccc(OCc4cccnc4)c3)cc1)n2C1CCCCC1 [Example 178, 1-cyclohexyl-2-{4-[3-(3-pyridylmethoxy)phenoxy]phenyl}-benzimidazole-5-carboxylic acid] | 52 |
| COc1cc(OCc2ccccc2)ccc1-c1nc2cc(C(=O)O)ccc2n1C1CCCCC1 [Example 179, 2-(4-benzyloxy-2-methoxyphenyl)-1-cyclohexylbenzimidazole-5-carboxylic acid] | 630 |
| COc1ccc(Br)c(COc2ccc(-c3nc4cc(C(=O)O)ccc4n3C3CCCCC3)cc2)c1 [Example 180, 2-[4-(2-bromo-5-methoxybenzyloxy)phenyl]-1-cyclohexylbenzimidazole-5-carboxylic acid] | 110 |
| O=C(O)c1ccc2c(c1)nc(-c1ccc(OC(C(=O)O)(c3ccccc3)c3ccccc3)cc1)n2C1CCCCC1 [Example 181, 2-[4-(carboxydiphenylmethoxy)phenyl]-1-cyclohexylbenzimidazole-5-carboxylic acid] | 710 |
| O=C(O)c1ccc2c(c1)nc(-c1ccc(OCc3cc([N+](=O)[O-])ccc3-c3ccc(Cl)cc3)cc1)n2C1CCCCC1 [Example 182, 2-{4-[2-(4-chlorophenyl)-5-nitrobenzyloxy]phenyl}-1-cyclohexylbenzimidazole-5-carboxylic acid] | 21 |
| O=C(O)c1ccc(-c2ccc(Cl)cc2COc2ccc(-c3nc4cc(C(=O)O)ccc4n3C3CCCCC3)cc2)cc1 [Example 184, 2-{4-[2-(4-carboxyphenyl)-5-chlorobenzyloxy]phenyl}-1-cyclohexylbenzimidazole-5-carboxylic acid] | 18 |
| O=C(O)c1ccc2c(c1)nc(-c1ccc(OC[C@@H]3CCCN3C(=O)OCc3ccccc3)cc1)n2C1CCCCC1 [Example 185, 2-{4-[{(2S)-1-benzyloxycarbonyl-2-pyrrolidinyl}methoxy]phenyl}-1-cyclohexylbenzimidazole-5-carboxylic acid] | 110 |
| O=C(O)c1ccc2c(c1)nc(-c1ccc(OCc3ccccc3-c3ccc(C(F)(F)F)cc3)cc1Cl)n2C1CCCCC1 [Example 186, 2-{2-chloro-4-[2-(4-trifluoromethylphenyl)benzyloxy]phenyl}-1-cyclohexylbenzimidazole-5-carboxylic acid] | 370 |
| O=C(O)c1ccc2c(c1)nc(-c1ccc(Oc3cccc(OCc4ccccn4)c3)cc1)n2C1CCCCC1 [Example 187, 1-cyclohexyl-2-{4-[3-(2-pyridylmethoxy)phenoxy]phenyl}-benzimidazole-5-carboxylic acid] | 56 |
| O=C(O)c1ccc2c(c1)nc(-c1ccc(OCc3cc(F)ccc3-c3ccc(Cl)cc3)cc1)n2C1CCCCC1 [Example 188, 2-{4-[2-(4-chlorophenyl)-5-fluorobenzyloxy]phenyl}-1-cyclohexylbenzimidazole-5-carboxylic acid] | 38 |
| O=C(O)c1ccc(-c2ccc(Cl)cc2)c(COc2ccc(-c3nc4cc(C(=O)O)ccc4n3C3CCCCC3)cc2)c1 [Example 189, 2-{4-[3-carboxy-6-(4-chlorophenyl)benzyloxy]phenyl}-1-cyclohexylbenzimidazole-5-carboxylic acid] | 17 |
| CN(C)C(=O)COc1ccccc1Oc1ccc(-c2nc3cc(C(=O)O)ccc3n2C2CCCCC2)cc1 [Example 191, 1-cyclohexyl-2-{4-[2-(dimethylcarbamoylmethoxy)phenoxy]-phenyl}benzimidazole-5-carboxylic acid] | 430 |
| O=C(O)c1ccc2c(c1)nc(-c1ccc(Oc3ccccc3OCC(=O)N3CCCCC3)cc1)n2C1CCCCC1 [Example 192, 1-cyclohexyl-2-{4-[2-(piperidinocarbonylmethoxy)phenoxy]-phenyl}benzimidazole-5-carboxylic acid] | 220 |
